Peptide text beside a SMILES is read from it. * marks the point of attachment. Biotin = O=C1N[C@H]2[C@H](CS[C@H]2CCCCC(=O)*)N1

In assay [1] the target is T1, Bcl-xL (Homo sapiens, UniProt Q07817).
T1 construct: The gene for the first 209 amino acids of Bcl-xL; made in house; host or cells: E. coli BL21(DE3), pET24a vector
Briefly: Radiolabeled off-rate assay on immobilized Bcl-xL. It counts as binding. From the text: Radiolabeled Off-Rate Assay. The DNA sequences coding for the peptides were ordered from Integrated DNA Technologies (IDT). Each DNA construct contained a T7 RNA Polymerase promoter, and a 5′ deletion mutant of the Tobacco Mosaic Virus (ΔTMV). The C-terminal portion of the peptides were elongated with a flexible serine-glycine linker (six amino acids long) and an HA tag. After gel purification using urea-PAGE, the DNA sequences were PCR amplified using Taq polymerase and in vitro transcribed into mRNA using T7 RNA polymerase. After transcription, the mRNA was urea-PAGE purified and resuspended in deionized water to a final concentration of 30 μM.
The samples were in vitro translated at 30° C. for 1 hour in the translation solution—150 mM KOAc, 750 μM MgCl2, 2 μM mRNA, 1× translation mix (20 mM Hepes-KOH pH 7.6, 100 mM creatine phosphate, 2 mM DTT, and 312.5 μM of each amino acid excluding methionine), ^35S-labeled methionine (Perkin Elmer; 20 μCi for each 25 μL of translation), and 60% (v/v) rabbit reticulocyte lysate. Radiolabeled peptides were purified using magnetic HA beads (Life Technologies) and eluted with 100 μL, 50 mM NaOH, then immediately neutralized with 20 μL of 1 M Tris-HCl, pH 8.0.
The radiolabeled peptides were allowed to bind to 30 pmol immobilized Bcl-xL for 1 hour in sample buffer (1×PBS, 1% (w/v) BSA, 0.1% (v/v) Tween 20, 10 μM biotin). The beads were magnetically separated, and washed 5× with sample buffer. The beads were resuspended in 1 mL of sample buffer containing 3 μM non-biotinylated Bcl-xL (˜100× molar excess relative to immobilized biotinylated Bcl-xL). At various time points, 100 μL of slurry was removed and the beads were magnetically separated and washed. The percent remaining at each time point was determined by dividing the counts per minute (cpm) on beads by total cpm (beads+washes). The peptide off-rate was determined by an exponential fit of the Percent counts on beads vs. Time (s).
The peptide ligands were made using a C-terminal HA tag, and affinity purified.

Assay [2] addresses T1, Bcl-xL. Briefly: High-throughput sequencing kinetic (HTSK) on- and off-rates of mRNA-peptide fusions. To be noted: mRNA-peptide fusions, next-generation sequencing. In kind it is binding. As to the method:
Preparing the pools of fusion ligands. The DNAs for the final enriched pools from the extension and the doped selection against Bcl-xL were generated. The DNA pools were PCR amplified using Taq polymerase and in vitro transcribed into mRNA using T7 RNA polymerase (Liu et al., Methods Enzymol. 318, 268-293 (2000)). After transcription, the mRNA was urea-PAGE purified and resuspended in deionized water to a final concentration of 30 μM. The mRNA was then ligated to fluorescein-F30P (phosphate-dA21-[dT-fluor]-[C9]3-dAdCdCP; where [dT-fluor] is fluorescein dT (Glen Research), [C9] is spacer 9 (Glen Research), and P is puromycin (Glen Research); synthesized at the Keck Oligo Facility at Yale) using T4 DNA ligase (Takahashi et al., Methods Mol. Biol. 535, 293-314 (2009)). The ligation was performed using a splint complementary to the 3′ end of the RNA and the 5′ end of the DNA-linker. The ligated mRNA was urea-PAGE purified and resuspended in deionized water to final concentration of 30 μM. The samples were in vitro translated in the translation solution-150 mM KOAc, 750 μM MgCl2, 2 μM mRNA, in 1× translation mix (20 mM Hepes-KOH pH 7.6, 100 mM creatine phosphate, 2 mM DTT, and 312.5 μM of each amino acid) and 60% (v/v) rabbit reticulocyte lysate. To prepare radiolabeled peptides or proteins, non-labeled methionine was substituted with ^35S-labeled methionine (Perkin Elmer; 20 μCi for each 25 μL of translation). The translation reactions were incubated at 30° C. for one hour. To form mRNA-protein fusions, KCl and MgCl2 were added to the reaction to final concentrations of 250 mM and 30 mM respectively after translation, and the samples were frozen at −20° C.
To purify the fusion molecules, 100 μL of dT cellulose (25% (v/v) slurry, GE Healthcare) in isolation buffer (100 mM Tris-HCl pH 8.0, 1 M NaCl, 0.2% (v/v) Triton X-100) was added and incubated for 1 hour. The beads were washed five times with 700 μL of isolation buffer, and the fusions were eluted with 3×80 μL of 65° C. water and desalted through Centrisep columns (Princeton Separations). The desalted fusions were adjusted to 1×RT buffer (50 mM Tris-HCl pH 8.3, 75 mM KCl, 3 mM MgCl2, […], […],) and the sample was heated to 65° C. for 5 minutes and cooled on ice to anneal the 3′ primer. After cooling, […] of Superscript II enzyme was added and the reaction incubated at 42° C. for one hour. […]
On- and off-rate experiments. […] The radiolabeled samples were washed 3×, and the beads were counted via a scintillation counter.
To obtain the HTSK off-rates, after the kinetic on-rate experiment, the remaining beads were washed 5× with selection buffer. […] The radiolabeled samples were washed and counted via a scintillation counter. […]

The mark [3] stands for this setting: in vitro translated radiolabeled peptides with C-terminal HA tag, read-out: Peptide koff.
Where [4] appears, read: radiolabeled peptide-mRNA fusions bound to immobilized Bcl-xL, read-out: koff.

T1 sequence (Q07817 1-209 limits assumed): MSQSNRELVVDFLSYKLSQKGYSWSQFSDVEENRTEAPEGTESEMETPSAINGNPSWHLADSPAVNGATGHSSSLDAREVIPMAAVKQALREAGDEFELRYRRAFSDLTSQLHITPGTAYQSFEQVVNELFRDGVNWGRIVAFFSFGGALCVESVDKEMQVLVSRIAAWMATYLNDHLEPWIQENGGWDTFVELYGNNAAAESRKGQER

Consider `CC[C@H](C)[C@H](NC(=O)[C@H](C)NC(=O)[C@@H](NC(=O)[C@@H](N)CCSC)[C@@H](C)CC)C(=O)N[C@@H](CO)C(=O)N[C@H](C(=O)N[C@H](C(=O)N[C@@H](Cc1ccc(O)cc1)C(=O)N[C@@H](CC(N)=O)C(=O)N[C@@H](Cc1ccc(O)cc1)C(=O)N[C@@H](CCCCN)C(=O)N[C@@H](CCCCN)C(=O)N[C@@H](C)C(=O)N[C@@H](C)C(=O)N[C@@H](CC(=O)O)C(=O)N[C@@H](Cc1c[nH]cn1)C(=O)N[C@@H](Cc1ccc(O)cc1)C(=O)N[C@@H](C)C(=O)N[C@@H](CCSC)C(=O)N[C@H](C(=O)N[C@@H](CCCCN)C(=O)NCC(=O)N[C@@H](CO)C(=O)N[C@@H](CCCCNC(=O)CCCC[C@@H]1SC[C@@H]2NC(=O)N[C@@H]21)C(N)=O)[C@@H](C)O)[C@@H](C)CC)[C@@H](C)O` [D1] (H-MIAISTIYNYKKAADHYAMTKGSK(Biotin)-NH2), for which the values for the koff on Bcl-xL [1] (setting [3]), at Bcl-xL [1] (setting [4]) and on Bcl-xL [2] were 2e-06 s⁻¹, 2e-06 s⁻¹ and 1e-06 s⁻¹, respectively.
With `CC[C@H](C)[C@H](NC(=O)[C@@H](NC(=O)[C@@H](NC(=O)[C@@H](NC(=O)[C@H](CCC(=O)O)NC(=O)[C@@H](NC(=O)[C@@H](N)CCSC)[C@@H](C)CC)[C@@H](C)O)[C@@H](C)CC)[C@@H](C)O)C(=O)N[C@@H](Cc1ccc(O)cc1)C(=O)N[C@@H](CC(N)=O)C(=O)N[C@@H](Cc1ccc(O)cc1)C(=O)N[C@@H](CCCCN)C(=O)N[C@@H](CCCCN)C(=O)N[C@@H](C)C(=O)N[C@@H](C)C(=O)N[C@@H](CC(=O)O)C(=O)N[C@@H](Cc1c[nH]cn1)C(=O)N[C@@H](Cc1ccccc1)C(=O)N[C@@H](CO)C(=O)N[C@@H](CCSC)C(=O)N[C@@H](CO)C(=O)N[C@@H](CCSC)C(=O)NCC(=O)N[C@@H](CO)C(=O)N[C@@H](CCCCNC(=O)CCCC[C@@H]1SC[C@@H]2NC(=O)N[C@@H]21)C(N)=O` [E1] (H-MIETITIYNYKKAADHFSMSMGSK(Biotin)-NH2), the results for the koff on Bcl-xL [1] (setting [3]), at Bcl-xL [1] (setting [4]) and at Bcl-xL [2] were 7.4e-06 s⁻¹, 1.2e-05 s⁻¹ and 2.5e-06 s⁻¹, respectively.

Source of the values: US20180172683A1, “METHODS FOR ANALYZING THE INTERACTION BETWEEN A TARGET PROTEIN AND A LIGAND” (UNIVERSITY OF SOUTHERN CALIFORNIA, priority 2015, published 2018).
